Data set [1] deals with HL-60 acute promyelocytic cells. The data set can be described thus: Differentiation, proliferation, viability and cell cycle of HL-60 cells, 4 days. Type of data set: cell-based. Conditions: 0-10 μM. Here is the method:
Cells were then fixed, stained with an anti-CD11b antibody and analyzed by flow cytometry (FIG. 6A).
Cell cycle analysis (PI staining) of HL-60 cells following the 4 day treatment at the indicated concentrations (i.e., 0 μM, 0.1 μM, 0.3 μM, 1 μM, 3 μM, and 10 μM) was also performed (FIG. 6C).

The test system of data set [2] is H3K9me2. The data set can be described thus: PK/PD study, reduction in H3K9me2 in MV4;11 xenograft. Type of data set: in vivo, SCID/bg mice. Conditions: for reduction in H3K9me2: 30 mg/kg/day osmotic mini-pump, relative to vehicle. The text has this: Specifically, subcutaneous MV4;11 xenografts were implanted in SCID/bg mice and allowed to grow to 200 mm^3. […] In particular, by day 14, dimethylation of lysine 9 of histone H3 in the tumor tissue was reduced by 46 percent as compared to the vehicle.

For data set [3], the system named is subcutaneous MV4;11 xenografts. In words: In vivo efficacy study, MV4;11 xenograft tumor volume. Further details: species or system SCID/bg mice. Conditions: 30 mg/kg/day osmotic mini-pump for 14 days, compared to vehicle. Here is the method: The efficacy of the compound of Example 7 was further examined by monitoring tumor volume during treatment with the compound of Example 7. Subcutaneous MV4;11 xenografts were implanted in SCID/bg mice and allowed to grow to 200 mm^3. […] Tumors were measured at the indicated time points (i.e., from 20 days to 55 days post-inoculation of the mice with the MV4;11 cells) and tumor growth was plotted as a function of time (FIG. 9).

The test system of data set [4] is H3K9me2. In words: H3K9me2 levels by AlphaLISA in HT1080 cells. Type of data set: cell-based. Conditions: 48 h, 0-1,000 nM.
A short description of data set [5]: Cytotoxicity, CellTiter Glo. Type of data set: cell-based. Conditions: human, PA-1 cells, 7-day proliferation, neural crest derived lines.
The nature of data set [6]: Cytotoxicity, CellTiter Glo. Conditions: human, G-401 cells, 7-day proliferation, neural crest derived lines. The data set is classed as cell-based.
The nature of data set [7]: Cytotoxicity, CellTiter Glo. Conditions: human, ZR7350 cells, 7-day proliferation, neural crest derived lines. Type of data set: cell-based.
A short description of the next data set: in vitro. Type of data set: cell-based. Conditions: PH-1; 7-day proliferation, neural crest derived lines; read-out: IC50 cytotoxicity.
Data set [8] is described as follows: Cytotoxicity, CellTiter Glo. Type of data set: cell-based. Conditions: human, Kasume-1 cells, 5-day proliferation.
Data set [9] is described as follows: Cytotoxicity, CellTiter Glo. Conditions: human, HL-60 cells, 5-day proliferation. Type of data set: cell-based.
A short description of data set [10]: Cytotoxicity, CellTiter Glo. The data set is classed as cell-based. Conditions: human, MV4;11 cells, 5-day proliferation.
The nature of data set [11]: Cytotoxicity, CellTiter Glo. Conditions: human, 22RV1 cells, 5-day proliferation. The data set is classed as cell-based.
A short description of data set [12]: Cytotoxicity, CellTiter Glo. The data set is classed as cell-based. Conditions: human, DU145 cells, 5-day proliferation.

Consider 1 molecule from patent US9284272B2, “Inhibitors of histone methyltransferase G9a” (AbbVie Inc., priority 2014, dated 2016).

SMILES strings stand for the structures. Bounds are passed on as bounds.

In the case of `COc1cc2c(cc1OCCCN1CCCC1)N=C(N)C21CCC1` [Example 7, 5′-methoxy-6′-(3-(pyrrolidin-1-yl)propoxy)spiro[cyclobutane-1,3′-indol]-2′-amine], the “cell cycle analysis (PI staining)” value in data set [1] is “increased numbers of cells were in the G1 phase”. Moreover, the “cell proliferation (CellTiter Glo)” value in data set [1] is “inhibited proliferation of the HL-60 cells”. Moreover, the “cell viability (trypan blue exclusion)” value in data set [1] is “largely unaffected”. Also, the “differentiation (CD11b, flow cytometry)” value in data set [1] is given as “induced differentiation of the HL-60 cells”. Also, the figures for the “reduction in H3K9me2” value in the data set on H3K9me2 [2] (Day 2), with H3K9me2 [2] (Day 7) and with H3K9me2 [2] (Day 14) were 0%, 25% and 46%, respectively. Moreover, in the data set on H3K9me2 [2] (day 14, compared to vehicle), the “reduction of dimethylation of lysine 9 of histone H3 in the tumor tissue” value amounted to 46%. In addition, the “tumor growth (tumor volume)” value in data set [3] is “growth inhibition of the tumors”. The “H3K9me2 reduction compared with UNC0638” value in the data set on H3K9me2 [4] is “equivalent effects on H3K9me2 reduction”. For the same molecule, the IC50 at 7 day (in data set [5]; in data set [6]; in [7]; in “in vitro”) was over 10 µM throughout. Also, the IC50 at 5 day in data set [8], in data set [9], in data set [10], in data set [11] and in [12] was over 10 µM throughout.
